Test results published in publication PMC4081081 (2014).

System: T25 (DNA, single strand, C6-amino dT at 8 of strand 2) TGGCGACGGCAGCGAGGCTTTTTTTTTTTTTTTTTTTTTTTTT/GCCTCGCTGCCGTCGCCA
Test: Cy3 fluorescence quenching
Details: 100 mM KCl; 10 mM Tris-HCl pH 7.5, room temperature, 50 nM DNA; negative control, nonspecific quenching taken as background

- binding: weak
Structure (SMILES): CCc1c(C)c2cc3nc(cc4nc(cc5c(CC)c(C)c(cc1[nH]2)n5C)C(C)=C4CCC(=O)O)C(CCC(=O)O)=C3C
